Experimental data from patent US6630128B1, “Porphyrin derivatives their use in photodynamic therapy and medical devices containing them” (Destiny Pharma Limited, priority 1999, dated 2003).

Key:
[1] = Singlet oxygen quantum yields (singlet oxygen phosphorescence at 1270 nm); format: physicochemical; details: for ΦΔ (singlet oxygen quantum yield): aerated toluene, excitation 355 nm, 20-23° C., relative to TPP ΦΔ=0.58
Protocol: The singlet oxygen quantum yields were determined by the direct measurement of singlet oxygen phosphorescence at 1270 nm. Samples were excited using the third harmonic of a Q-switched Nd:YAG (neodymium: yttrium-aluminium-garnet) Spectra Physics GCR-150-10 laser, operating at an excitation wavelength of 355 nm. A small fraction of the laser output was passed through a solution state filter containing aqueous cobalt (II) sulphate (CoSO4) to remove residual 532 and 1064 nm radiation and then down a 8 mm diameter liquid light guide (Oriel). For the measurements the end of the light guide was held against a 1 cm×1 cm fluorescence cuvette (Hellma) holding the sample. During the course of the experiments the incident laser energy for each measurement was determined using a pyroelectric detector held behind the sample. This detector was calibrated at the start of the experiment using a second calibrated energy meter (Gentec ED100). The laser energy was adjusted by placing cells containing aqueous sodium nitrite between the CoSO4 filter and the light guide. Typical pulse energies used were in the range of 25-500 μJ per pulse. Shot to shot noise was estimated to be <10% and sets of 20 shots gave an average value within <3%.
Phosphorescence from the sample was collected and passed through an interference filter centred at 1270 nm available from (Infra Red Engineering Ltd) and then focused onto the active area of a liquid nitrogen cooled germanium photodiode (North Coast EO-817P). The output from this device was AC coupled to a digital oscilloscope (Tektronix TDS-320) which digitised and averaged the transients. Typically 20 laser shots were used for each sample. The averaged data was transferred to a PC where it was stored and analysed.
A stock solution of each of the title compounds of Examples 67 to 81 was prepared by dissolving a small sample of the respective title compound in approximately 5 ml of toluene (Fisher Scientific, Analytical grade). The exact concentrations of the stock solution was not determined.
A working solution of each of the title compounds of Examples 67 to 81 was prepared by diluting the respective stock solution with toluene to give an absorbance of 0.100±0.005 at 355 nm when placed in a ultraviolet/visible spectrometer (ATI-Unicam UV-2) compared to a reference cell containing the pure toluene solvent. The ultraviolet/visible spectrum of each sample was also recorded over the range 300-700 nm.
All of the data were recorded at ambient temperature, 20-23° C., and the solutions were aerated. The singlet oxygen emission decay was recorded for each sample using 5 laser energies and the data for each measurement were fitted to an exponential decay of the form I(t)=A.exp(−t/τ), where I(t) is the measured intensity of singlet oxygen phosphorescence at time t, A is the intensity extrapolated back to t=0 (ie when the laser fires), and τ is the lifetime of singlet oxygen. A typical decay for the title compound of Example 78 in toluene excited at 355 nm using a pulse energy of 365 μJ, where A=19.6 and τ=27.8 μs, is shown in FIG. 2.
A plot of A versus the incident laser energy was drawn for each sample and the slope determined. The slope of such a graph is proportional to the singlet oxygen quantum yield. An example of a plot showing the linear relationship between the singlet oxygen emission intensity and the laser energy for the title compound of Example 78 and meso-tetraphenylporphyrin (TPP) is shown in FIG. 3.
The experiments were carried out using batches of 5 samples of the working solution of each of the title compounds of 67 to 81 plus one reference sample meso-tetraphenylporphyrin (TPP). Each run was repeated at least once. The data sets obtained for each sample were within ±5% of the mean value.
The dominant sources of error in the experiment include the shot-to-shot fluctuations in the laser and the difference in absorbances of the samples at the excitation wavelength. The values have an error of ±10%. […]

[2] = Fluorescence quantum yields (corrected emission spectra, relative to TPP); format: physicochemical; details: excitation wavelength 355 nm, emission 550-800 nm
Protocol: Mass spectra were recorded on a Finnigan MAT TSQ 700 triple quadrupole mass spectrometer equipped with an […]. The matrix-assisted laser desorption/ionization mass spectra of the porphyrins were obtained using a dithranol matrix. FAB-MS spectra were obtained using a 3-nitrobenzyl alcohol (NOBA) matrix. ^1H-NMR spectra were measured at 60 MHz on a Jeol JNM-PMX60 spectrometer, at 270 MHz on a Jeol EX 270 spectrometer and at 300 MHx on a Varian Gemini-300 spectrometer in CDCl3 using TMS as an internal reference. Ultraviolet/visible spectra of solutions of compounds in tetrahydrofuran (THF) or toluene were measured using a Hitachi U-3000 spectrophotometer or a ATI-Unicam UV-2 spectrophotometer. Reflectance-absorbance infra red (RAIR) spectra were recorded on a BIO-RAD FTS 165 spectrophotometer. Fluorescence emission spectra were recorded using a Spex Fluorolog 3 spectrophotometer at an excitation wavelength of 355 nm, emission at 550 to 800 nm, with a bandpass of 2 nm.
The emission spectra were recorded using a Spex Fluorolog 3, excitation wavelength=355 nm, emission 550-800 nm, with a bandpass of 2 nm. A spectrum was recorded for each of the title compounds of Examples 67 to 81.
The fluorescence quantum yield for each of the title compounds of Examples 67 to 81 was determined by measuring the integral of the corrected emission spectra for each compound and calculated relative to TPP=0.11 (Handbook of Photochemistry Ed 2, Murov, Carmichael and Hug, Dekker 1993). The fluorescence quantum yield for each of the title compounds of Examples 67 to 81 are listed in Table 1; values for Zn TPP and Mg TPP are included in Table 1 for reference but they were not measured in this work.

| Compound | ΦΔ (singlet oxygen quantum yield) [1] | Quantum yield of fluorescence, relative to TPP = 0.11 [2] | τ, lifetime of singlet oxygen ([1]; toluene, excited at 355 nm, pulse energy 365 μJ (FIG. 2)) [μs] |
| --- | --- | --- | --- |
| C=CCCOCCCCCCCCCCCCCCCCOc1ccc(-c2c3nc(c(-c4cc(OCCCCCCCCCCCCCCCC)c(OCCCCCCCCCCCCCCCC)c(OCCCCCCCCCCCCCCCC)c4)c4ccc([n-]4)c(-c4cc(OCCCCCCCCCCCCCCCC)c(OCCCCCCCCCCCCCCCC)c(OCCCCCCCCCCCCCCCC)c4)c4nc(c(-c5cc(OCCCCCCCCCCCCCCCC)c(OCCCCCCCCCCCCCCCC)c(OCCCCCCCCCCCCCCCC)c5)c5ccc2[n-]5)C=C4)C=C3)cc1.[Zn+2] [Example 76, 5-[4-(16-but-3-Enyloxy-hexadecyloxy)-phenyl]-10,15,20-tris-(3,4,5-trihexadecyloxy-phenyl)-porphyrinato Zinc] | 0.66 ± 0.07 | 0.03 |  |
| 5-[4-(6-but-3-Enyloxy-hexyloxy)-phenyl]-10,15,20-tris-(3,5-didecyloxy-phenyl)-porphyrinato Zinc [Example 79] | 0.76 ± 0.08 | 0.04 |  |
| C=CCCOCCCCCCCCCCCCOc1ccc(-c2c3nc(c(-c4cc(OCCCCCCCCCC)c(OCCCCCCCCCC)c(OCCCCCCCCCC)c4)c4ccc([n-]4)c(-c4cc(OCCCCCCCCCC)c(OCCCCCCCCCC)c(OCCCCCCCCCC)c4)c4nc(c(-c5cc(OCCCCCCCCCC)c(OCCCCCCCCCC)c(OCCCCCCCCCC)c5)c5ccc2[n-]5)C=C4)C=C3)cc1.[Zn+2] [Example 73, 5-[4-(12-but-3-Enyloxy-dodecyloxy)-phenyl]-10,15,20-tris-(3,4,5-tridecyloxy-phenyl)-porphyrinato Zinc] | 0.71 ± 0.07 | 0.04 |  |
| 5-[4-(6-but-3-Enyloxy-hexyloxy)-phenyl]-10,15,20-tris-(3,4,5-tridecyloxy-phenyl)-porphyrinato Zinc [Example 70] | 0.75 ± 0.07 | 0.04 |  |
| C=CCCOCCCCCCOc1ccc(-c2c3nc(c(-c4cc(OCCCCCC)c(OCCCCCC)c(OCCCCCC)c4)c4ccc([n-]4)c(-c4cc(OCCCCCC)c(OCCCCCC)c(OCCCCCC)c4)c4nc(c(-c5cc(OCCCCCC)c(OCCCCCC)c(OCCCCCC)c5)c5ccc2[n-]5)C=C4)C=C3)cc1.[Zn+2] [Example 69, 5-[4-(6-but-3-Enyloxy-hexyloxy)-phenyl]-10,15,20-tris-(3,4,5-trihexyloxy-phenyl)-porphyrinato Zinc] | 0.71 ± 0.07 | 0.04 |  |
| C=CCCOCCCCCCOc1ccc(-c2c3nc(c(-c4cc(OCCCCCCCCCC)c(OCCCCCCCCCC)c(OCCCCCCCCCC)c4)c4ccc([n-]4)c(-c4cc(OCCCCCCCCCC)c(OCCCCCCCCCC)c(OCCCCCCCCCC)c4)c4nc(c(-c5cc(OCCCCCCCCCC)c(OCCCCCCCCCC)c(OCCCCCCCCCC)c5)c5ccc2[n-]5)C=C4)C=C3)cc1.[Mg+2] [Example 77, 5-[4-(6-but-3-Enyloxy-hexyloxy)-phenyl]-10,15,20-tris-(3,4,5-tridecyloxy-phenyl)-porphyrinato Magnesium] | 0.51 ± 0.05 | 0.14 |  |
| 5-[4-(12-but-3-Enyloxy-dodecyloxy)-phenyl]-10,15,20-tris-(3,4,5-trihexyloxy-phenyl)-porphyrinato Zinc [Example 72] | 0.71 ± 0.07 | 0.04 |  |
| C=CCCOCCCCCCCCCCCCOc1ccc(-c2c3nc(c(-c4cc(OCCCCCC)cc(OCCCCCC)c4)c4ccc([n-]4)c(-c4cc(OCCCCCC)cc(OCCCCCC)c4)c4nc(c(-c5cc(OCCCCCC)cc(OCCCCCC)c5)c5ccc2[n-]5)C=C4)C=C3)cc1.[Zn+2] [Example 78, 5-[4-(12-but-3-Enyloxy-dodecyloxy)-phenyl]-10,15,20-tris-(3,5-dihexyloxy-phenyl)-porphyrinato Zinc] | 0.78 ± 0.08 | 0.04 | 27.8 |
| 5-[4-(12-but-3-Enyloxy-dodecyloxy)-phenyl]-10,15,20-tris-(3,5-dihexadecyloxy-phenyl)-porphyrinato Zinc [Example 81] | 0.70 ± 0.07 | 0.04 |  |
| C=CCCOCCCCCCCCCCCCOc1ccc(-c2c3nc(c(-c4cc(OCCCCCCCCCCCCCCCC)c(OCCCCCCCCCCCCCCCC)c(OCCCCCCCCCCCCCCCC)c4)c4ccc([n-]4)c(-c4cc(OCCCCCCCCCCCCCCCC)c(OCCCCCCCCCCCCCCCC)c(OCCCCCCCCCCCCCCCC)c4)c4nc(c(-c5cc(OCCCCCCCCCCCCCCCC)c(OCCCCCCCCCCCCCCCC)c(OCCCCCCCCCCCCCCCC)c5)c5ccc2[n-]5)C=C4)C=C3)cc1.[Zn+2] [Example 74, 5-[4-(12-but-3-Enyloxy-dodecyloxy)-phenyl]-10,15,20-tris-(3,4,5-trihexadecyloxy-phenyl)-porphyrinato Zinc] | 0.71 ± 0.07 | 0.04 |  |
| 5,5′-{4,4′-[12,12′-Dithiobis-(dodecyloxy)-phenyl]}-10,10′,15,15′,20,20′-hexakis-(3,4,5-tridecyloxy-phenyl)-diporphyrinato Zinc [Example 67] | 0.65 ± 0.07 | 0.04 |  |
| C=CCCOCCCCCCOc1ccc(-c2c3nc(c(-c4cc(OCCCCCCCCCCCCCCCC)c(OCCCCCCCCCCCCCCCC)c(OCCCCCCCCCCCCCCCC)c4)c4ccc([n-]4)c(-c4cc(OCCCCCCCCCCCCCCCC)c(OCCCCCCCCCCCCCCCC)c(OCCCCCCCCCCCCCCCC)c4)c4nc(c(-c5cc(OCCCCCCCCCCCCCCCC)c(OCCCCCCCCCCCCCCCC)c(OCCCCCCCCCCCCCCCC)c5)c5ccc2[n-]5)C=C4)C=C3)cc1.[Zn+2] [Example 71, 5-[4-(6-but-3-Enyloxy-hexyloxy)-phenyl]-10,15,20-tris-(3,4,5-trihexadecyloxy-phenyl)-porphyrinato Zinc] | 0.72 ± 0.07 | 0.04 |  |
| C=CCCOCCCCCCCCCCCCCCCCOc1ccc(C2=c3ccc4[n]3[Zn][n]3c(ccc3C(c3cc(OCCCCCCCCCC)c(OCCCCCCCCCC)c(OCCCCCCCCCC)c3)=C3C=CC(=N3)C=4c3cc(OCCCCCCCCCC)c(OCCCCCCCCCC)c(OCCCCCCCCCC)c3)C(c3cc(OCCCCCCCCCC)c(OCCCCCCCCCC)c(OCCCCCCCCCC)c3)=C3C=CC2=N3)cc1 [Example 75, 5-[4-(16-but-3-Enyloxy-hexadecyloxy)-phenyl]-10,15,20-tris-(3,4,5-tridecyloxy-phenyl)-porphyrinato Zinc] | 0.71 ± 0.07 | 0.04 |  |
